For one series, the target named is Albumin (Homo sapiens, UniProt P02768). The experiment in a line: Inhibition of Albumin (unknown origin) denaturation at 100 uM relative to control.
Series [1] has as its target cAMP and cAMP-inhibited cGMP 3',5'-cyclic phosphodiesterase 10A (Homo sapiens, UniProt Q9Y233). Put plainly: Inhibition of full length human PDE10A incubated for 1 hr by topcount Scintillation plate reader analysis.
The subject of a further series is BK polyomavirus. The experiment in a line: Antiviral activity against BK polyomavirus MM infected in human HFF cells assessed as reduction in viral growth incubated for 7 days. In kind it is functional, organism-based. The note with it: Betapolyomavirus hominis, 168 h.
The nature of series [2]: Cytotoxicity against human HFF cells assessed as cell growth inhibition by celltiter-glo assay. In kind it is toxicity, cell-based. Background: ATP-based viability assays read luminescence as a measure of living cells.
The test system of series [3] is A549. Put plainly: Antiproliferative activity against human A549 cells assessed as inhibition of cell growth by MTT assay. It is filed as functional, cell-based. Background: Tetrazolium dyes change colour on reduction, which living cells bring about.
Another series concerns MCF7. Put plainly: Antiproliferative activity against human MCF7 cells assessed as inhibition of cell growth incubated for 48 hrs by alamarblue staining based assay. It is filed as functional. Particulars: MCF7, 48 h. On the technique in general: The colour change of resazurin is a common sign of viable cells or microbes.
The subject of the next series is COLO 205. The experiment in a line: Antiproliferative activity against human COLO 205 cells assessed as inhibition of cell growth incubated for 48 hrs by alamarblue staining based assay. It is filed as functional. Particulars: COLO 205, 48 h.
The test system of series [4] is A549. Put plainly: Antiproliferative activity against human A549 cells assessed as inhibition of cell growth incubated for 48 hrs by alamarblue staining based assay. Particulars: A549, 48 h. It is filed as functional.
Another series has as its target Pyruvate kinase PKM (Homo sapiens, UniProt P14618). Put plainly: Inhibition of recombinant PKM2 (unknown origin).
Series [5] concerns Candida albicans. Put plainly: Antifungal activity against Candida albicans ATCC 10231 assessed as reduction in fungal growth incubated for 24 hrs by CLSI based assay. It is filed as functional.
Another series has as its system Candida dubliniensis. The experiment in a line: Antifungal activity against Candida dubliniensis CD36 assessed as reduction in fungal growth incubated for 24 hrs by CLSI based assay. It is filed as functional.
Series [6] concerns Meyerozyma guilliermondii. The experiment in a line: Antifungal activity against Meyerozyma guilliermondii assessed as reduction in fungal growth incubated for 24 hrs by CLSI based assay. In kind it is functional.
For series [7], the system named is Kluyveromyces marxianus. The experiment in a line: Antifungal activity against Candida kefyr assessed as reduction in fungal growth incubated for 24 hrs by CLSI based assay. It is filed as functional.
Another series has as its system Nakaseomyces glabratus. Put plainly: Antifungal activity against Candida glabrata CBS138 assessed as reduction in fungal growth incubated for 24 hrs by CLSI based assay. It is filed as functional.
A further series deals with Pichia kudriavzevii. Put plainly: Antifungal activity against Candida krusei ATCC 6358 assessed as reduction in fungal growth incubated for 24 hrs by CLSI based assay. In kind it is functional.
Another series concerns Candida tropicalis. The experiment in a line: Antifungal activity against Candida tropicalis MYA-3404 assessed as reduction in fungal growth incubated for 24 hrs by CLSI based assay. In kind it is functional.
Another series deals with Aorta. The experiment in a line: Vasorelaxant activity in rabbit aorta assessed as inhibition of phenylephrine-induced contraction. In kind it is functional, tissue-based. The note with it: Oryctolagus cuniculus.
The subject of series [8] is Candida albicans. The experiment in a line: Antifungal activity against Candida albicans NCPF 400034 assessed as inhibition of fungal growth incubated for 48 hrs. In kind it is functional.
The subject of series [9] is Kluyveromyces marxianus. Put plainly: Antifungal activity against Candida keyfer […] 410004 assessed as inhibition of fungal growth incubated for 48 hrs. In kind it is functional.
For the next series, the system named is Cryptococcus neoformans. The experiment in a line: Antifungal activity against Cryptococcus neoformans NCPF 250316 assessed as inhibition of fungal growth incubated for 48 hrs. In kind it is functional.
For another series, the system named is Aspergillus niger. The experiment in a line: Antifungal activity against Aspergillus niger assessed as inhibition of fungal growth incubated for 48 hrs. It is filed as functional.
For the next series, the system named is Neurospora crassa. Put plainly: Antifungal activity against Neurospora crassa assessed as inhibition of fungal growth incubated for 48 hrs. It is filed as functional.

Here are results for 22 molecules from ChEMBL document CHEMBL5532697, “Imidazopyrimidine: from a relatively exotic scaffold to an evolving structural motif in drug discovery” (RSC Med Chem, 2024).

≈ marks a conversion by molar mass, not a printed value.

By inhibition is commonly meant the share of the control response that was lost under treatment. A low value points to a response near the control. The IC50 is the point on the concentration scale where inhibition reaches its midpoint. One may read the EC50 as the concentration that produces a half-maximal response. The term CC50 denotes the concentration giving 50% cytotoxicity. In general, MIC refers to the lowest concentration found to suppress growth.

Albumin, sequence (P02768 whole entry): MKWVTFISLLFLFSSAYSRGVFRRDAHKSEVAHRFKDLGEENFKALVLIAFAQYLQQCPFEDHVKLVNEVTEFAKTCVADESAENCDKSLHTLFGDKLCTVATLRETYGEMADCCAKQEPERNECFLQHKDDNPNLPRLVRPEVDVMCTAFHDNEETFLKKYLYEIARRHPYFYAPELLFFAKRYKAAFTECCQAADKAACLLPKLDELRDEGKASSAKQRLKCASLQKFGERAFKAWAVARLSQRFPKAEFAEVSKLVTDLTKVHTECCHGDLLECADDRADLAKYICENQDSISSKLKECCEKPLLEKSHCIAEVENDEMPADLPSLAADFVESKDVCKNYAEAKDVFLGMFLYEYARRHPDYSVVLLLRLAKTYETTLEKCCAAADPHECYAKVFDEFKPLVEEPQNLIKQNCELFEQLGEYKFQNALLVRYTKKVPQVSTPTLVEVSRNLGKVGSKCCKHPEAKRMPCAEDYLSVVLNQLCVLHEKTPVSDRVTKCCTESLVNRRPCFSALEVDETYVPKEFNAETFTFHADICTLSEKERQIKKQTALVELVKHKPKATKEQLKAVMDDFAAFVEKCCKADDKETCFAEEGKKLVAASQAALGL
Pyruvate kinase PKM, sequence (P14618 whole entry): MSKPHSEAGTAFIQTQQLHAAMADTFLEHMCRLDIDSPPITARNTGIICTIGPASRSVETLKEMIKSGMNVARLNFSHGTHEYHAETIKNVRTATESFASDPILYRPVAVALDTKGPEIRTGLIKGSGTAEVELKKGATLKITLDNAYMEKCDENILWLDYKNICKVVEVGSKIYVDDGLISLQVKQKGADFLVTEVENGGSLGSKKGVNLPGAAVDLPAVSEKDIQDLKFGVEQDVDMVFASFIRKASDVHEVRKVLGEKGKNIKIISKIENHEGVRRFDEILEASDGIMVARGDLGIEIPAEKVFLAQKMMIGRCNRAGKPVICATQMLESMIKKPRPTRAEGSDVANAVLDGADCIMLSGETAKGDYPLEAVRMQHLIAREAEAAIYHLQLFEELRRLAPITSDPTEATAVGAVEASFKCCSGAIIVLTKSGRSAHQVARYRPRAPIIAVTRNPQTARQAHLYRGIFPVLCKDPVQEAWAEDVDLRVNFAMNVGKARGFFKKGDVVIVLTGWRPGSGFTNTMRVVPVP
cAMP and cAMP-inhibited cGMP 3',5'-cyclic phosphodiesterase 10A, sequence (Q9Y233 whole entry): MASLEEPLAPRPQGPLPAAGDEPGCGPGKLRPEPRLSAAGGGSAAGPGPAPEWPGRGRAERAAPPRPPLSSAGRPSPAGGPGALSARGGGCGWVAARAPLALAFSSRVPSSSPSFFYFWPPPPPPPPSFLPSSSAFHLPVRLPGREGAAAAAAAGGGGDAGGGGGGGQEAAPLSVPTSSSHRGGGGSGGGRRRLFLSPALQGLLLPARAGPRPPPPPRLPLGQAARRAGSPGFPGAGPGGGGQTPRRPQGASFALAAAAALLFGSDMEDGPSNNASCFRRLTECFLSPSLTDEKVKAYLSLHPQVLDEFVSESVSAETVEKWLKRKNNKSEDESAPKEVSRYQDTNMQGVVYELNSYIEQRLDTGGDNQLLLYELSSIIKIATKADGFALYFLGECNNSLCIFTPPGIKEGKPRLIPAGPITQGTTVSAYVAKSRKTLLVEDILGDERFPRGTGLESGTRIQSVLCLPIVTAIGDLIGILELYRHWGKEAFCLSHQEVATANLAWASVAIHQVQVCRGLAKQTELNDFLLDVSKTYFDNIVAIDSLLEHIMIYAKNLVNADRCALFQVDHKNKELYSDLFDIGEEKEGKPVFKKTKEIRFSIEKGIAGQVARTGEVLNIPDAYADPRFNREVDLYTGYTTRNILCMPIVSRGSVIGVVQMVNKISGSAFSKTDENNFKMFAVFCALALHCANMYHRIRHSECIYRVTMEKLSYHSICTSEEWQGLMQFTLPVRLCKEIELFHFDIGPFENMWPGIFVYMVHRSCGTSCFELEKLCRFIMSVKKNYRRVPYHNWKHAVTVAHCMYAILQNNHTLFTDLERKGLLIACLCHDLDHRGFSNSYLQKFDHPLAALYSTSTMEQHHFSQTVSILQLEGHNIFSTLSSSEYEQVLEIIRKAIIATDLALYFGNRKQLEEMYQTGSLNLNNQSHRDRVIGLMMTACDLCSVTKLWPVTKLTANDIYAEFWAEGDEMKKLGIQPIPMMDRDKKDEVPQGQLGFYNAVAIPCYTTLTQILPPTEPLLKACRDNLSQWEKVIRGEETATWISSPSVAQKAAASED

Turning to `Clc1ccc(-c2cn3cccnc3n2)cc1`, on Albumin, the inhibition at 100 µM was found to be 41.7%.
Same read-out and setting: as for `COc1ccc(-c2cn3cccnc3n2)cc1`, the figure is 40.9%; as for `Cc1ccc(-c2cn3cccnc3n2)cc1`, 82.9%.
Take `Cc1c(C(=O)N2CCCC2)cnn1C(=O)Nc1ccn2cc(-c3ccccc3)nc2n1`: the IC50 in [1] came out at 0.003 µM.
On the same count and under the same terms, as for `Cc1c(C(=O)NCc2c[nH]cn2)cnn1C(=O)Nc1ccn2cc(-c3ccccc3)nc2n1`, the figure is 0.002 µM.
As to `CS(=O)(=O)C1=CN(Cc2ccccc2)C(=O)N2CCN=C12`, the EC50 in the series on BK polyomavirus came out at 0.66 µM. Further, in [2], the CC50 was above 150 µM.
The molecule `Cc1c(C(=O)N2CCC2)cnn1C(=O)Nc1ccn2cc(-c3ccc(Cl)s3)nc2n1` gave a concentration for half-maximal inhibition (IC50) in [1] of 0.004 µM.
Turning to `Cc1ccc(S(=O)(=O)C2=CN(c3ccccc3)C(=O)N3CCN=C23)cc1`, in the series on BK polyomavirus, the EC50 was 93 µM. Also, the CC50 in series [2] is above 150 µM.
As to `CC(=O)NC1(Cc2ccc(O)cc2)C(=O)N=C2N=CC=CN21` (stereo not drawn), the IC50 with A549 [3] was determined as 6.4 µM.
Turning to `COc1ccccc1N1CCN(CC(=O)c2cnc3ncccn23)CC1`, the IC50 in the series on MCF7 is 12.2 µM; in the series on COLO 205, 64.8 µM; in the series on A549 [4], 26.2 µM; on Pyruvate kinase PKM it was 0.027 µM.
As for `CC(=O)NC1(Cc2cccc3ccccc23)C(=O)N=C2N=CC=CN21` (stereo not drawn), the IC50 in the series with A549 [3] was 2.6 µM.
Turning to `O=C(CN1CCN(c2ccccc2)CC1)c1cnc2ncccn12`, the IC50 in the series with MCF7 is 13.5 µM; with COLO 205 it was 73.5 µM; in the series on A549 [4], 28.5 µM; on Pyruvate kinase PKM, 0.05 µM.
The molecule `Cc1c(C(=O)NCc2cocn2)cnn1C(=O)Nc1ccn2cc(-c3ccccc3)nc2n1` had an IC50 in [1] of 0.001 µM.
Take `CC(=O)c1ccc(C(=O)N2CCN(CC(=O)c3cnc4ncccn34)CC2)cc1`: the IC50 in the series with MCF7 stood at 11.8 µM; with COLO 205 it was 104 µM; with A549 [4] it was 35.4 µM; at Pyruvate kinase PKM, 0.73 µM.
Turning to `O=C(c1ccc(Cl)cc1)c1cnc2ncccn12`, the MIC with Candida albicans [5] stood at 0.25 µg/mL (≈ 0.97 µM); with Candida dubliniensis it was 0.5 µg/mL (≈ 1.94 µM); in series [6], 0.062 µg/mL (≈ 0.241 µM); in the series on Kluyveromyces marxianus [7], 0.125 µg/mL (≈ 0.485 µM); in the series with Nakaseomyces glabratus, 1 µg/mL (≈ 3.88 µM); with Pichia kudriavzevii, 0.5 µg/mL (≈ 1.94 µM). For the same molecule, in the series on Candida tropicalis, the MIC amounted to 0.031 µg/mL (≈ 0.12 µM).
In the case of `O=C(CN1CCN(c2ccc(Cl)cc2)CC1)c1cnc2ncccn12`, the IC50 in the series with MCF7 turned out to be 12.9 µM; in the series with COLO 205 it was 28 µM; with A549 [4], 37.5 µM; on Pyruvate kinase PKM, 0.79 µM.
Take `CC(=O)NC1(Cc2ccc(Br)cc2)C(=O)N=C2N=CC=CN21` (stereo not drawn): the IC50 in the series with A549 [3] is 2.1 µM.
For `Nc1cc(N)nc(-c2nc(Cc3ccccc3F)c3ncccn23)n1`, in the series with Aorta, the IC50 was 1.05 µM.
On to `O=C(c1ccc(F)cc1)c1cnc2ncccn12`, for which the MIC with Candida albicans [5] was 0.062 µg/mL (≈ 0.257 µM); with Candida dubliniensis it was 0.5 µg/mL (≈ 2.07 µM); in series [6], 0.25 µg/mL (≈ 1.04 µM); in the series with Kluyveromyces marxianus [7], 0.125 µg/mL (≈ 0.518 µM); in the series on Nakaseomyces glabratus, 0.031 µg/mL (≈ 0.129 µM); with Pichia kudriavzevii it was 0.5 µg/mL (≈ 2.07 µM). The MIC in the series on Candida tropicalis was 0.25 µg/mL (≈ 1.04 µM).
As to `Cc1ccc([Se]Cc2cn3cccnc3n2)cc1`, the MIC is above 37.8 µg/mL in the series on Candida albicans [8]; 18.9 µg/mL (≈ 62.4 µM) with Kluyveromyces marxianus [9]; above 36 µg/mL in the series on Cryptococcus neoformans; above 37.8 µg/mL in the series on Aspergillus niger; 18.9 µg/mL (≈ 62.4 µM) with Neurospora crassa.
For the molecule `c1ccc(-c2ccc(-c3cn4cccnc4n3)cc2)cc1`, the inhibition at 100 µM against Albumin was 96.4%.
On to `N#Cc1ccc(C(=O)c2cnc3ncccn23)cc1`, for which the MIC in the series with Candida albicans [5] was 0.25 µg/mL (≈ 1.01 µM); in the series with Candida dubliniensis, 0.062 µg/mL (≈ 0.25 µM); in [6] it was 0.031 µg/mL (≈ 0.125 µM); with Kluyveromyces marxianus [7] it was 0.125 µg/mL (≈ 0.504 µM); with Nakaseomyces glabratus it was 0.065 µg/mL (≈ 0.262 µM); in the series on Pichia kudriavzevii, 0.25 µg/mL (≈ 1.01 µM). Also, the MIC in the series on Candida tropicalis turned out to be 0.062 µg/mL (≈ 0.25 µM).
